Assay results taken from PMC11126915, “iATPSnFR2: A high-dynamic-range fluorescent sensor for monitoring intracellular ATP” (Proceedings of the National Academy of Sciences of the …, 2024).

Assays:
[1] = test system: LMTK- cells; test: green:red ratio imaging of fibroblasts expressing iATPSnFR2-HaloTag variants; type: cell-based, mouse; conditions: 10 mM 2dOG replacing 10 mM glucose
Experimental: (§1) Rho° and the parental LMTK- cells were maintained in T-75 flasks with Dulbecco’s Modified Eagle's Medium (DMEM) + 10% Fetal Bovine Serum (FBS) + 1 mM pyruvate + 5 µM uridine. Two days prior to transfection, they were split into separate rows of a 24-well plate (half Rho°, half LMTK) at 0.6 and 0.1 million cells per well, respectively. Cells were transfected with iATPSnFR2.HaloTag variants by lipofectamine (0.5 µg DNA + 2 µL lipofectamine 2,000 per well) for 4 to 6 h in DMEM lacking FBS or antibiotics. Transfection medium was replaced with fresh DMEM + 10% FBS + penicillin/streptomycin overnight. Cells were labeled with JFX650 HaloTag ligand by adding the fluorophore to 100 nM for an hour. Cells were washed with Mammalian Cell Imaging Buffer and imaged in a Cytation 5 imaging reader (BioTek) over the course of about 2 h. After about 20 min of imaging to establish a baseline fluorescence, the culture plate was removed from the instrument, and buffer was replaced with the query buffer. The equilibration buffer contained 10 mM glucose, and the query buffers contained 10 mM 2dOG.
(§2) Images were background subtracted and aligned for movement artifacts with the Gen5 software package that controls the Cytation 5 instrument. Images were assembled as TIF stacks and imported into ImageJ. […] Those ROIs were used to determine the ratio of green to red fluorescence for each well. […]

[2] = test system: Rho° cells; test: as above; type: cell-based, mouse; conditions: 10 mM 2dOG replacing 10 mM glucose
Experimental: as §1, §2

[3] = test system: T1, iATPSnFR2.A95A.A119L; test: Equilibrium fluorescence titration of 0.2 µM purified sensor HaloTag-JFX650 conjugate with ATP and ADP head-to-head (ex 485 nm, em 535 nm) in Mammalian Cell Imaging Buffer (20 mM HEPES, 119 mM NaCl, 2.5 mM KCl, 2 mM MgCl2, 2 mM CaCl2, pH 7.2).; conditions: n = 3; read-out: Binding curve fits, in µM, for ATP and ADP (affinity)
T1 construct: epsilon subunit residues 1-109, linker 1 VLVG, cpSFGFP, linker 2 ICV, residues 110-129, C-terminal HaloTag conjugated to JFX650
Experimental: (§3) Purified protein was mixed with 1.1 molar equivalents of JFX650 HaloTag ligand and incubated at room temperature for 1 h and then at 4 °C overnight. Excess HaloTag ligand was removed by gel filtration on a PD-10 column (GE Life Sciences) and reconcentrated by ultrafiltration.
(§4) All in vitro assays were performed in Mammalian Cell Imaging Buffer unless otherwise noted. iATPSnFR2 equilibrium measurements (affinity, specificity, pH) were performed with 0.2 µM protein in a Tecan Spark fluorimeter with 20 nm bandpass windows and excitation at 485 nm and emission at 535 nm.
(§5) Supplementary Figure 1a. In vitro characterization: ATP & ADP affinity. Three variants of iATPSnFR2.HaloTag-JFX650 titrated with ATP (black) and ADP (grey), head-to-head. iATPSnFR2.S29W.A95K (left); iATPSnFR2.A95K (center); iATPSnFR2.A95A.A119L (right). Binding curve fits, in µM, for ATP and ADP are S29W.A95K: 4 µM, 400 µM. A95K: 16 µM, 780 µM.
(§6) A95A.A119L: 530 µM, 5300 µM. Error bars are s.d. of three technical replicates. […]

[4] = test system: T2, iATPSnFR2.A95K; test: as above; conditions: n = 3; read-out: Binding curve fits, in µM, for ATP and ADP (affinity)
T2 construct: epsilon subunit residues 1-109, linker 1 VLVG, cpSFGFP, linker 2 ICV, residues 110-129, C-terminal HaloTag conjugated to JFX650
Experimental: as §3, §4, §5, §6

[5] = test system: T3, iATPSnFR2.S29W.A95K; test: as above; conditions: n = 3; read-out: Binding curve fits, in µM, for ATP and ADP (affinity)
T3 construct: epsilon subunit residues 1-109, linker 1 VLVG, cpSFGFP, linker 2 ICV, residues 110-129, C-terminal HaloTag conjugated to JFX650
Experimental: as §3, §4, §5, §6

[6] = test system: T1, iATPSnFR2.A95A.A119L; test: Separate head-to-head equilibrium fluorescence titration of 0.2 µM purified sensor HaloTag-JFX650 conjugate with ATP and other nucleoside triphosphates (ex 485 nm, em 535 nm) in Mammalian Cell Imaging Buffer, pH 7.2.; conditions: n = 3; read-out: Binding curve fits, in µM, for ATP, CTP, GTP (binding specificity)
Experimental: as §3, §4
(§7) [NTP], µM [NTP], µM [NTP], µM
(§8) Supplementary Figure 1d. In vitro characterization: binding specificity. iATPSnFR2 affinity for ATP
(§9) and other nucleoside triphosphates. Three variants of iATPSnFR2.HaloTag-JFX650 titrated with ATP
(§10) and other NTPs, head-to-head. S29W.A95K (left); A95K (center); A95A.A119L (right). ATP (black),
(§11) CTP (cyan), GTP (grey), TTP (purple). Binding curve fits, in µM, for ATP, CTP, GTP are S29W.A95K:
(§12) Error bars are s.d. of three technical replicates.

[7] = test system: T2, iATPSnFR2.A95K; test: as above; conditions: n = 3; read-out: Binding curve fits, in µM, for ATP, CTP, GTP (binding specificity)
Experimental: as §3, §4, §7, §8, §9, §10, §11, §12

[8] = test system: T3, iATPSnFR2.S29W.A95K; test: as above; conditions: n = 3; read-out: Binding curve fits, in µM, for ATP, CTP, GTP (binding specificity)
Experimental: as §3, §4, §7, §8, §9, §10, §11, §12

[9] = test system: nerve terminals of dissociated hippocampal neurons; test: ATP depletion in nerve terminals during AP firing; type: cell-based, Sprague-Dawley rats; conditions: 5 mM glucose + 10 µM KA, 6 s at 50 Hz
Experimental: (§13) Primary neuronal cultures were prepared as previously described ([31]). Hippocampal CA1 to CA3 regions were dissected, dissociated, and plated onto poly-L-ornithine-coated coverslips. Plating media consisted of the minimal essential medium, 0.5% glucose, insulin (0.024 g/L), transferrin ([…]), GlutaMAX 1%, N-21 (2%), and fetal bovine serum (10%). After 1 to 3 days in vitro (DIV), cells were fed and maintained in media with the following modifications: cytosine β-D-arabinofuranoside (4 µM) and FBS 5%. Cultures were incubated at 37 °C in a 95% air/5% CO2 incubator. Calcium phosphate–mediated gene transfer was performed on DIV 6 to 8, and neurons were used for experiments on DIV 14 to 21.
(§14) Coverslips were loaded onto a custom chamber ([32]), mounted on a Zeiss inverted microscope and perfused at ~100 µL min^–1 with Tyrode’s solution containing: 119 mM NaCl, 2.5 mM KCl, 5 mM glucose, 50 mM HEPES, 2 mM CaCl2, 2 mM MgCl2, 50 µM DL-2-amino-5-phosphonovaleric acid (AP5), and 10 µM 6-cyano-7-nitroquinoxaline-2,3-dione (CNQX), adjusted to pH 7.4. […] Fluorescence was stimulated with OBIS 488 nm LX or OBIS 637 nm LS lasers (Coherent) passing through a laser speckle reducer (LSR 3005 at 12° diffusion angle, Optotune). […]

[10] = test system: axonal mitochondria of primary hippocampal neurons; test: mitochondrial matrix ATP imaging in axonal mitochondria of primary neurons; type: cell-based, Sprague-Dawley rats; conditions: 10 µM, perfusion; KA in 5 mM glucose; oligomycin in 1.25 mM lactate + 1.25 mM pyruvate
Description: iATPSnFR2.HaloTag variants were subcloned by restriction digest into an AAV vector with a CAG promoter via BglII/PstI digest from the bacterial expression vector. The pAAV.CAG vector includes an extra serine after the initial methionine and lacks a polyhistidine tag. To target the sensor to the mitochondrial matrix, four repeats of COX8(mito) leader sequence ([…]) separated by spacer (IHSLPPEGPW) were introduced at the N terminus of iAPTSnFR2(A95A/A119L). HaloTag was incorporated at the N-terminal of iATPSnFR2.A95A.A119L separated by a linker (LQSTGSGNAVGQDTQER). […]
as §14
Time series of imaging pairs (HaloTag and iATPSnFR2) were split into two independent image series using a custom-written Fiji routine to facilitate analysis. […] Synaptic boutons signals were analyzed using homemade script routines in Igor-pro v6.3.7.2 (WaveMetrics, Lake Oswego, OR, USA). […]

[11] = test system: synaptic boutons of hippocampal neurons; test: spontaneous ATP depletion in synaptic boutons (synaptophysin-targeted iATPSnFR2); type: cell-based, Sprague-Dawley rats; conditions: 5 mM glucose + 10 µM KA + 0.3 µM TTX, iATPSnFR2.A95A.A119L.HaloTag-JFX650
Experimental: as §13, §14

`O=CC[C@@H](O)[C@H](O)[C@H](O)CO` [2dOG, 2-deoxyglucose] was tested, and the “effect on green fluorescence of iATPSnFR2 variants” value [1] was “decreased fluorescence only in those expressing the weakest affinity variant” and the “effect on green fluorescence of iATPSnFR2 variants” value [2] was “green fluorescence rapidly dropped”.
In the case of `Nc1ncnc2c1ncn2[C@@H]1O[C@H](COP(=O)(O)OP(=O)(O)O)[C@@H](O)[C@H]1O` [ADP, adenosine diphosphate], the Kd [3] was 5300 µM, the Kd [4] was 780 µM and the Kd [5] was 400 µM.
`Nc1ncnc2c1ncn2[C@@H]1O[C@H](COP(=O)(O)OP(=O)(O)OP(=O)(O)O)[C@@H](O)[C@H]1O` [ATP, adenosine triphosphate] gave a Kd [3] of 530 µM, a Kd [4] of 16 µM and a Kd [5] of 4 µM. It also gave a Kd [6] of 750 µM, a Kd [7] of 30 µM and a Kd [8] of 20 µM.
For `Nc1ccn([C@@H]2O[C@H](COP(=O)(O)OP(=O)(O)OP(=O)(O)O)[C@@H](O)[C@H]2O)c(=O)n1` [CTP, cytidine triphosphate], the Kd [6] was ~10000 µM, the Kd [7] was 100 µM and the Kd [8] was 50 µM.
Work on `Nc1nc2c(ncn2[C@@H]2O[C@H](COP(=O)(O)OP(=O)(O)OP(=O)(O)O)[C@@H](O)[C@H]2O)c(=O)[nH]1` [GTP, guanosine triphosphate] yielded a Kd [6] of ~10000 µM, a Kd [7] of 1500 µM and a Kd [8] of 430 µM.
With `CC(C)[C@H]1CC[C@@]2(CO2)[C@H]2C(=O)OCC(C(=O)O)=C[C@H]12` [KA, koningic acid] the “effect on iATPSnFR2 fluorescence during AP stimulation” value [9] was “even greater decrease in fluorescence that did not recover”, the “effect on mitochondrial ATP signal (mito-iATPSnFR2.HaloTag)” value [10] was “rapid drop in the ATP signal” and the “effect on average green to red fluorescence ratio in boutons” value [11] was “gradually declined over a 5 to 10 min period”.
In the case of `CC[C@H]1/C=C/C=C/C[C@@H](C)[C@H](O)[C@@](C)(O)C(=O)[C@@H](C)[C@H](O)[C@@H](C)C(=O)[C@@H](C)[C@H](O)[C@@H](C)/C=C/C(=O)O[C@@H]2[C@H](C)[C@H](CC1)O[C@]1(CC[C@H](C)[C@H](C[C@@H](C)O)O1)[C@H]2C` [oligomycin], the “effect on mitochondrial ATP signal (mito-iATPSnFR2.HaloTag)” value [10] was “further collapse of the ATP signal”.
